In brackets after ≈: the same amount, converted by molar mass. Where a name gives a salt, the structure may show the parent alone. Read-outs that look alike come from different tables or passages of the source.
What was measured:
[1] = tested on: P388-D1 mouse leukemia cell line; test: In vitro cytotoxicity (MTT), P388-D1; type: cell-based; settings: Mus musculus, P388D1, 72 h, read-out: In Vitro Cytotoxicity (IC50), P388-D1
Experimental: (§1) Metabolic activity was measured by the cells' ability to reduce the tetrazolium dye, 3-(4,5-dimethylthiazol-2-yl)-2,5-diphenyltetrazolium bromide (MTT), to a quantifiable colored formasan derivative. Surviving cells reduce the MTT dye. The inhibitory concentrations of killing 50% of the cells (IC50 s) were calculated. Testing was in accord with the following protocol:
(§2) Test compounds and a reference antineoplastic agent, ADRIAMYCIN (doxorubicin hydrochloride), were dissolved in dimethyl sulfoxide (DMSO) and diluted, first with Earle's Balanced Salt Solution, followed by culture medium, to twice the highest concentration of the compound to be tested. From this concentrated stock, two-fold serial dilutions were prepared in 96-well microtiter trays, each well containing twice the desired final concentration of the compound. Each concentration was tested in triplicate and compared to triplicate drug-free controls.
(§3) The cells were grown in the same medium used for diluting the compounds. Adherent cells were harvested by trypsinization according to the following procedure:
(§4) After harvesting by trypsinization, viable cell counts were determined and cell density was adjusted to 25,000 cells/mL. Inoculum (0.1 mL) was then added to each well for a final concentration of 2,500 cells per well. Addition of the inoculum was used to dilute the test compounds to the desired concentration.
(§5) Microtiter trays were incubated for three days at 36° C. in a humidified atmosphere containing 5% carbon dioxide.
(§6) After three days, 20 microliters of 5 mg/mL MTT in phosphate-buffered solution were added to each well of the microtiter trays. The microtiter trays were then returned to the incubator for two to four hours to allow the surviving cells to reduce the dye. After this incubation, both the medium and the unreduced dye were removed by aspiration. DMSO was added to each well to dissolve the water-insoluble, colored end product of the dye reduction for spectrophotometric measurement at 570 nm.
(§7) The results obtained which clearly show the cytotoxicity of the compounds of Examples 5, 6, 7 and 8 against […] tumor cell lines A549, HCT-8, HT-29 and P388-D1, are illustrated in Table 1. (A549 is a human lung cancer cell line; HCT-8 is a human colon cancer cell line; HT-29 is a human colon cancer cell line; and P388-D1 is a mouse leukemia cell line.)

[2] = tested on: HT-29 human colon cancer cell line; test: In vitro cytotoxicity (MTT), HT-29; type: cell-based; settings: HT-29, 72 h
Experimental: as §1, §2, §3, §4, §5, §6, §7

[3] = tested on: A549 human lung cancer cell line; test: In vitro cytotoxicity (MTT), A549; type: cell-based; settings: A549, 72 h
Experimental: as §1, §2, §3, §4, §5, §6, §7

[4] = tested on: C-26 colon adenocarcinoma; test: In vivo activity against C-26 implanted intraperitoneally (Example 44); design: species or system mouse
Experimental: (§8) The title compound of Example 37 above was tested against solid tumors in mice, using 1,3-bis(2-chloroethyl)-1-nitrosourea (BCNU) as a positive control. The tumor lines were M5076, an ovarian sarcoma implanted intraperitoneally (IP), and C-26, a colon adenocarcinoma, implanted intraperitoneally (IP) and subcutaneously (SC) in separate trials.
(§9) All drugs were administered in 5% aqueous dextrose or other suitable diluent. Drug efficacy was determined by prolonged survival times of the test animals or reduced tumor mass as compared to negative controls. Test groups consisted of 10 mice. Control groups consisted of 20 mice. Animals were of one sex and of similar weight. Prior to testing, the tumor cell lines were propagated in BALB/cj mice. Tumor implants were aliquots of a donor pool brei,
In the IP trials, the mean survival time (MST) of the groups of mice was determined, not counting animals surviving at the conclusion of the trial, and the mean lifespan comparison value of % MST(T/C) calculated, which value represents the ratio of treated to control group MST's expressed as a percentage.
For C-26 colon adenocarcinoma, the tumor was implanted into CD2 F1 mice, IP and SC in separate trials. For the C-26 IP trial, the tumor was implanted IP on day 0. The test compound were administered four times a day IP from day 1 to day 9 for a total of nine days. BCNU was administered four times a day on days 1, 5 and 9.

[5] = tested on: C-26 colon adenocarcinoma; test: In vivo activity against C-26 implanted subcutaneously (Example 44); design: species or system mouse; settings: 10 mg/kg, compound 37 days 1-9, BCNU days 1, 5, 9
Experimental: as §8, §9
For the C-26 SC trial, the tumor was implanted SC into mice on day 0. The test compound was administered four times a day IP from day 1 to day 9 for a total of nine days. BCNU was administered four times a day on days 1, 5, and 9. The mean tumor masses were determined on day 11 and day 21, and the experiment terminated on day 60. The mean tumor mass (MTM) inhibition value of % MTM(T/C) was calculated, which value represents the ratio of treated to control group MTM's expressed as a percentage.

B16F10 mouse melanoma = test: In vitro cytotoxicity (MTT), B16F10; type: cell-based; settings: B16-F10, 72 h, read-out: In Vitro Cytotoxicity (IC50)
Experimental: as §1, §2, §3, §4, §5, §6
(§10) Compounds from Examples 4, 6, 8, 9 and 10 were additionally tested against human and murine tumor cell lines A549, HT-29, P388-D1, P388, P388-ADR(0.0), P388-ADR(0.1) and B16F109. (P388 is a mouse leukemia cell line similar to P388-D1, but animal-passaged; P388-ADR (0.0) is an ADRIAMYCIN-resistant variant of P388, the inoculum of which is grown in drug-free medium; P388-ADR (0.1) is an ADRIAMYCIN-resistant variant of P388, the inoculum of which is grown in medium with 0.1 mcg.ml ADRIAMYCIN; and B16F10 is a mouse melanoma.) The results are presented in Table 2; as shown in the table, the compounds of the present invention are effective cytotoxic agents even against the ADRIAMYCIN-resistant cell line P388-ADR.

[6] = tested on: P388 mouse leukemia cell line; test: In vitro cytotoxicity (MTT), P388; type: cell-based; settings: P388, 72 h, read-out: In Vitro Cytotoxicity (IC50)
Experimental: as §1, §2, §3, §4, §5, §6, §10

[7] = tested on: P388-ADR(0.0), ADRIAMYCIN-resistant variant of P388; test: In vitro cytotoxicity (MTT), P388-ADR(0.0); type: cell-based; settings: Mus musculus, 72 h, inoculum grown in drug-free medium, Table 2
Experimental: as §1, §2, §3, §4, §5, §6, §10

[8] = read-out: In Vitro Cytotoxicity (IC50), HT-29, Table 1, three day MTT assay
[9] = read-out: In Vitro Cytotoxicity (IC50), A549, Table 1, three day MTT assay
[10] = 10 mg/kg, compound 37 days 1-9, BCNU days 1, 5, 9
[11] = read-out: In Vitro Cytotoxicity (IC50), HT-29, Table 2, ADR: average of two tests
[12] = read-out: In Vitro Cytotoxicity (IC50), A549, Table 2, ADR: average of two tests

Compound | IC50 (B16F10 mouse melanoma) | IC50 [6] | IC50 [2, 11] | IC50 [3, 12] | other results
CCOC(=O)c1cn2c3c(c(N4CCC(NC(C)=O)C4)c(F)cc3c1=O)Oc1cc(C)ccc1-2 (stereo not drawn) [6, step 2, Ethyl 1-(3-acetamidopyrrolidin-1-yl)-2-fluoro-9-methyl-4-oxo-4H-quino[2,3,4-i,j][1,4]benzoxazine-5-carboxylate] | – | – | – | – | IC50 ([1]; Table 1, three day MTT assay): 0.65 µg/mL (≈ 1.4 µM); IC50 [2, 8]: 0.64 µg/mL (≈ 1.37 µM); IC50 [3, 9]: 1.01 µg/mL (≈ 2.17 µM)
O=NN(CCCl)C(=O)NCCCl [BCNU, 1,3-bis(2-chloroethyl)-1-nitrosourea, reference compound] | – | – | – | – | % MST(T/C) [4, 10]: 201%; MST [4, 10]: 41.4; test animals that survived the trial ([4]; BCNU 10 mg/kg (footnote b)): One of ten test animals survived the trial; % MTM(T/C) ([5]; day 11): 1%; MTM ([5]; day 11): 2 mg; % MTM(T/C) ([5]; day 21): 7%; MTM ([5]; day 21): 244 mg
Cc1ccc2c(c1)-n1cc(C(=O)O)c(=O)c3cc(F)c(N4CCC(N)C4)c(c31)O2 (stereo not drawn) [Example 4, 1-(3-aminopyrrolidin-1-yl)-2-fluoro-8-methyl-4-oxo-4H-quino[2,3,4-i,j][1,4]benzoxazine-5-carboxylic acid hydrochloride] | 0.0221 µg/mL | 0.0384 µg/mL | 0.0431 µg/mL | 0.122 µg/mL | IC50 [7]: 0.24 µg/mL
CCOC(=O)c1cn2c3c(c(N4CCC(NC(C)=O)C4)c(F)cc3c1=O)Oc1cc([N+](=O)[O-])ccc1-2 (stereo not drawn) [Example 5, Ethyl 1-(3-acetamidopyrrolidin1-yl)-2-fluoro-9-nitro-4-oxo-4H-quino[2,3,4-i,j][1,4]benzoxazine-5-carboxylate] | – | – | – | – | IC50 ([1]; Table 1, three day MTT assay): 0.011 µg/mL (≈ 0.0222 µM); IC50 [2, 8]: 0.078 µg/mL (≈ 0.157 µM); IC50 [3, 9]: 0.13 µg/mL (≈ 0.262 µM)
NC1CCN(c2c(F)cc3c(=O)c(C(=O)O)cn4c3c2Oc2cc(F)ccc2-4)C1 (stereo not drawn) [Example 7, 1-(3-aminopyrrolidin-1-yl)-2,9-difluoro-4-oxo-4H-quino[2,3,4-i,j][1,4]benzoxazine-5-carboxylic acid hydrochloride] | – | – | 0.2 µg/mL | 4.1 µg/mL | IC50 ([1]; Table 1, three day MTT assay): 0.11 µg/mL; IC50 ([1]; Table 2, ADR value marked *: single test): 0.11 µg/mL; IC50 [2, 8]: 0.21 µg/mL; IC50 [3, 9]: 4.1 µg/mL
CCC[C@H](N)C(=O)NC1CCN(c2c(F)cc3c(=O)c(C(=O)O)cn4c3c2Oc2cc(C)ccc2-4)C1 (stereo partly drawn) [Example 10, 1-(3-norvalylaminopyrrolidin-1-yl)-2-fluoro-9-methyl-4-oxo-4H-quino[2,3,4-i,j][1,4]benzoxazine-5-carboxylic acid hydrochloride] | 0.0573 µg/mL | 0.108 µg/mL | 0.0875 µg/mL | 0.187 µg/mL | IC50 [7]: 0.447 µg/mL
Cc1cc(C)c2c(c1)-n1cc(C(=O)O)c(=O)c3cc(F)c(N4CCC(N)C4)c(c31)O2 (stereo not drawn) [Example 15, 1-(3-aminopyrrolidin-1-yl)-8,10-dimethyl-2-fluoro-4-oxo-4H-quino[2,3,4-i,j][1,4]benzoxazine-5-carboxylic acid hydrochloride] | 0.015 µg/mL | 0.012 µg/mL | 0.015 µg/mL | 0.034 µg/mL | –
N[C@H]1CCN(c2c(F)cc3c(=O)c(C(=O)O)cn4c3c2Oc2ccccc2-4)C1 [Example 16, 1((3S)-3-aminopyrrolidin-1-yl)-2-fluoro-4-oxo-4H-quino[2,3,4-i,j][1,4]benzoxazine-5-carboxylic acid hydrochloride] | 0.018 µg/mL | 0.017 µg/mL | 0.055 µg/mL | 0.23 µg/mL | IC50 [7]: 0.12 µg/mL
N[C@@H]1CCN(c2c(F)cc3c(=O)c(C(=O)O)cn4c3c2Oc2ccccc2-4)C1 [Example 17, 1-((3R)-3-aminopyrroidin-1-yl)-2-fluoro-4-oxo-4H-quino[2,3,4-i,j][1,4]benzoxazine-5-carboxylic acid hydrochloride] | 0.011 µg/mL | 0.021 µg/mL | 0.068 µg/mL | 0.042 µg/mL | IC50 [7]: 0.1 µg/mL
Cc1ccc2c(c1)Oc1c(N3CC[C@@H](N)C3)c(F)cc3c(=O)c(C(=O)O)cn-2c13 [Example 19, 1-((3R)-3-aminopyrrolidin-1-yl)-2-fluoro-9-methyl-4-oxo-4H-quino[2,3,4-i,j][1,4]benzoxazine-5-carboxylic acid hydrochloride] | 0.049 µg/mL | 0.047 µg/mL | 0.052 µg/mL | 0.24 µg/mL | –
CC(C)(C)c1ccc2c(c1)-n1cc(C(=O)O)c(=O)c3cc(F)c(N4CCC(N)C4)c(c31)O2 (stereo not drawn) [Example 21, 1-(3-aminopyrrolidin-1-yl)-8-t-butyl-2-flouro-4-oxo-4H-quino[2,3,4-i,j][1,4]benzoxazine-5-carboxylic acid hydrochloride] | 0.045 µg/mL | 0.063 µg/mL | 0.078 µg/mL | 0.247 µg/mL | –
NC1CCN(c2c(F)cc3c(=O)c(C(=O)Nc4ccc(F)cc4F)cn4c3c2Oc2ccccc2-4)C1 (stereo not drawn) [Example 30, 1-(3-aminopyrrolidin-1-yl)-2-fluoro-4-oxo-4H-quino[2,3,4-i,j][1,4]benzoxazine-5-(N-2,4-difluorphenyl)carboxamide hydrochloride] | 1.3 µg/mL | 0.6 µg/mL | 1.6 µg/mL | 4.1 µg/mL | –
NC1CCN(c2c(F)cc3c(=O)c(C(=O)O)cn4c3c2Oc2cc3c(cc2-4)OCO3)C1 (stereo not drawn) [Example 32, 1(3-aminopyrrolidin-1-yl)-2-fluoro-8,9-methylenedioxy-4-oxo-4H-quino[2,3,4-i,j][1,4]benzoxazine-5-carboxylic acid hydrochloride] | 0.018 µg/mL | 0.022 µg/mL | 0.042 µg/mL | 0.134 µg/mL | –
CCOC(=O)c1cn2c3c(c(N4CCC(N)C4)c(F)cc3c1=O)Oc1cc3c(cc1-2)OCO3 (stereo not drawn) [Example 35, Ethyl 1-(3-aminopyrrolidin-1-yl)-2-fluoro-8,9-methylenedioxy-4-oxo-4H-quino[2,3,4-i,j][1,4]benzoxazine-5-carboxylate] | 0.077 µg/mL (≈ 0.17 µM) | 0.034 µg/mL (≈ 0.075 µM) | 0.093 µg/mL (≈ 0.205 µM) | 0.26 µg/mL (≈ 0.573 µM) | –
